From patent publication US12552783B2, “Modulators of proteolysis and associated methods of use” (Arvinas Operations, Inc., priority 2018, dated 2026)

Target: KRas (Homo sapiens, UniProt P01116, G12C)
Experiment: KRas degradation in SW1573 cells by Western blot, normalized to GAPDH (data of Table 14)
Format: cell-based
Settings: SW1573 cells
How it was run: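 SW1573 cells, homozygous for the KRas G12C mutation and maintained in DMEM with 10% FBS and 1% penicillin-streptomycin, were seeded in 12-well plates, allowed to attach overnight at 37° C. under 5% CO2, then serum-starved for 24 hours before compound exposure. KRas levels were measured by Western blot, normalized to GAPDH, and compared with DMSO controls to give percent degradation, DC50 and Dmax.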

Measured: Percent Degradation at Indicated Concentration (μM)

C=CC(=O)N1CCN(c2nc(O[C@H](C)CN3CCC(OCCOCCOCCOCCOc4cc(-c5scnc5C)ccc4CNC(=O)[C@@H]4C[C@@H](O)CN4C(=O)[C@H](c4cc(C)no4)C(C)C)CC3)nc3c2CCN(c2cc(O)cc4ccccc24)C3)CC1 [compound 443, (2S,4R)-N-(2-(2-(2-(2-(2-((1-((R)-2-((4-(4-acryloylpiperazin-1-yl)-7-(3-hydroxynaphthalen-1-yl)-5,6,7,8-tetrahydropyrido[3,4-d]dipyrimidin-2-yl)oxy)propyl)piperidin-4-yl)oxy)ethoxy)ethoxy)ethoxy)ethoxy)-4-(4-methylthiazol-5-yl)benzyl)-4-hydroxy-1-((S)-3-methyl-2-(3-methylisoxazol-5-yl)butanoyl)pyrrolidine-2-carboxamide]
C (Percent Degradation: C ≤ 35): 0.1 μM | 0.3 μM | 1 μM

C=CC(=O)N1CCN(c2nc(OC[C@@H]3C[C@@H](OCCOCCOCCOCCOCC(=O)N[C@H](C(=O)N4C[C@H](O)C[C@H]4C(=O)N[C@@H](C)c4ccc(-c5scnc5C)cc4)C(C)(C)C)CN3C)nc3c2CCN(c2cccc4ccccc24)C3)C[C@@H]1CC#N [compound 480]
C (Percent Degradation: C ≤ 35): 0.1 μM | 0.3 μM | 1 μM

C=CC(=O)N1CCN(c2nc(O[C@H](C)CN3CCC(OCCOCCOCCOc4cc(-c5scnc5C)ccc4CNC(=O)[C@@H]4C[C@@H](O)CN4C(=O)[C@@H](c4cc(C)no4)C(C)C)CC3)nc3c2CCN(c2cc(O)cc4ccccc24)C3)CC1 [compound 440, (2S,4R)-N-(2-(2-(2-(2-((1-((R)-2-((4-(4-acryloylpiperazin-1-yl)-7-(3-hydroxynaphthalen-1-yl)-5,6,7,8-tetrahydropyrido[3,4-d]pyrimidin-2-yl)oxy)propyl)piperidin-4-yl)oxy)ethoxy)ethoxy)ethoxy)-4-(4-methylthiazol-5-yl)benzyl)-4-hydroxy-1-((R)-3-methyl-2-(3-methylisoxazol-5-yl)butanoyl)pyrrolidine-2-carboxamide]
C (Percent Degradation: C ≤ 35): 0.1 μM | 0.3 μM | 1 μM

C=CC(=O)N1CCN(c2nc(O[C@H](C)CN3CCC(OCCOCCOCCOCCOCCOc4ccc5c(c4)C(=O)N(C4CCC(=O)NC4=O)C5=O)CC3)nc3c2CCN(c2cc(O)cc4ccccc24)C3)CC1 (stereo partly drawn) [compound 420, 5-((14-((1-((R)-2-((4-(4-acryloylpiperazin-1-yl)-7-(3-hydroxynaphthalen-1-yl)-5,6,7,8-tetrahydropyrido[3,4-d]pylimidin-2-yl)oxy)propyl)piperidin-4-yl)oxy)-3,6,9,12-tetraoxatetradecyl)oxy)-2-(2,6-dioxopiperidin-3-yl)isoindoline-1,3-dione]
C (Percent Degradation: C ≤ 35): 0.1 μM | 0.3 μM | 1 μM

Cc1ncsc1-c1ccc([C@H](C)NC(=O)[C@@H]2C[C@@H](O)CN2C(=O)[C@@H](NC(=O)COCCOCCOCCOCCOCCOC2CCN(C[C@@H](C)Oc3nc(N4CCN(C(=O)C(O)O)CC4)c4cc(Cl)c(-c5cc(O)cc6ccccc56)c(F)c4n3)CC2)C(C)(C)C)cc1 [compound 248, (2S,4R)-1-((2S)-2-(tert-butyl)-20-((1-((2R)-2-((6-chloro-4-(4-(2,2-dihydroxyacetyl)piperazin-1-yl)-8-fluoro-7-(3-hydroxynaphthalen-1-yl)quinazolin-2-yl)oxy)propyl)piperidin-4-yl)oxy)-4-oxo-6,9,12,15,18-pentaoxa-3-azaicosanoyl)-4-hydroxy-N-((S)-1-(4-(4-methylthiazol-5-yl)phenyl)ethyl)pyrrolidine-2-carboxamide]
C (Percent Degradation: C ≤ 35): 0.3 μM | 1 μM | 3 μM

Cc1ncsc1-c1ccc([C@H](C)NC(=O)[C@@H]2C[C@@H](O)CN2C(=O)[C@@H](NC(=O)COCCOCCOCCOC2CCN(C[C@@H](C)Oc3nc(N4CCN(C(=O)C(O)O)CC4)c4cc(Cl)c(-c5cc(O)cc6ccccc56)c(F)c4n3)CC2)C(C)(C)C)cc1 [compound 246, (2S,4R)-1-((2S)-2-(tert-butyl)-14-((1-((2R)-2-((6-chloro-4-(4-(2,2-dihydroxyacetyl)piperazin-1-yl)-8-fluoro-7-(3-hydroxynaphthalen-1-yl)quinazolin-2-yl)oxy)propyl)piperidin-4-yl)oxy)-4-oxo-6,9,12-trioxa-3-azatetradecanoyl)-4-hydroxy-N-((S)-1-(4-(4-methylthiazol-5-yl)phenyl)ethyl)pyrrolidine-2-carboxamide]
C (Percent Degradation: C ≤ 35): 0.3 μM | 1 μM | 3 μM

C=CC(=O)N1CCN(c2nc(O[C@H](C)CN3CCC(OCCNc4cccc5c4C(=O)N(C4CCC(=O)NC4=O)C5=O)CC3)nc3c2CCN(c2cc(O)cc4ccccc24)C3)CC1 (stereo partly drawn) [compound 411, 4-((2-((1-((R)-2-((4-(4-acryloylpiperazin-1-yl)-7-(3-hydroxynaphthalen-1-yl)-5,6,7,8-tetrahydropyrido[3,4-d]pyrimidin-2-yl)oxy)propyl)piperidin-4-yl)oxy)ethyl)amino)-2-(2,6-dioxopiperidin-3-yl)isoindoline-1,3-dione]
C (Percent Degradation: C ≤ 35): 0.1 μM | 0.3 μM | 1 μM

C=CC(=O)N1CCN(c2nc(O[C@H](C)CN3CCC(OCCOCCOCCOc4cc(-c5scnc5C)ccc4CNC(=O)[C@@H]4C[C@@H](O)CN4C(=O)[C@H](c4cc(C)no4)C(C)C)CC3)nc3c2CCN(c2cc(O)cc4ccccc24)C3)CC1 [compound 441, (2S,4R)-N-(2-(2-(2-(2-((1-((R)-2-((4-(4-acryloylpiperazin-1-yl)-7-(3-hydroxynaphthalen-1-yl)-5,6,7,8-tetrahydropyrido[3,4-d]pyrimidin-2-yl)oxy)propyl)piperidin-4-yl)oxy)ethoxy)ethoxy)ethoxy)-4-(4-methylthiazol-5-yl)benzyl)-4-hydroxy-1-((S)-3-methyl-2-(3-methylisoxazol-5-yl)butanoyl)pyrrolidine-2-carboxamide]
C (Percent Degradation: C ≤ 35): 0.1 μM | 0.3 μM | 1 μM

C=CC(=O)N1CCN(c2nc(O[C@H](C)CN3CCC(OCCOc4cc([C@H](C(=O)N5C[C@H](O)C[C@H]5C(=O)N[C@@H](C)c5ccc(-c6scnc6C)cc5)C(C)C)on4)CC3)nc3c(F)c(-c4cc(O)cc5ccccc45)c(Cl)cc23)CC1 [compound 525, (2S,4R)-1-((2R)-2-(3-(2-((1-((2R)-2-((4-(4-acryloylpiperazin-1-yl)-6-chloro-8-fluoro-7-(3-hydroxynaphthalen-1-yl)quinazolin-2-yl)oxy)propyl)piperidin-4-yl)oxy)ethoxy)isoxazol-5-yl)-3-methylbutanoyl)-4-hydroxy-N-((S)-1-(4-(4-methylthiazol-5-yl)phenyl)ethyl)pyrrolidine-2-carboxamide]
C (Percent Degradation: C ≤ 35): 0.03 μM | 0.1 μM | 0.3 μM

C=CC(=O)N1CCN(c2nc(O[C@H](C)CN3CCC(OCCOc4cc(-c5scnc5C)ccc4CNC(=O)[C@@H]4C[C@@H](O)CN4C(=O)[C@H](c4cc(C)no4)C(C)C)CC3)nc3c2CCN(c2cc(O)cc4ccccc24)C3)CC1 [compound 437, (2S,4R)-N-(2-(2-((14(R)-2-((4-(4-acryloylpiperazin-1-yl)-7-(3-hydroxynaphthalen-1-yl)-5,6,7,8-tetrahydropyrido[3,4-d1pyrimidin-2-yl)oxy)propyl)piperidin-4-yl)oxy)ethoxy)-4-(4-methylthiazo1-5-yl)benzyl)-4-hydroxy-1-((S)-3-methyl-2-(3-methylisoxazol-5-yl)butanoyl)pyrrolidine-2-carboxamide]
C (Percent Degradation: C ≤ 35): 0.1 μM | 0.3 μM | 1 μM

C=CC(=O)N1CCN(c2nc(O[C@H](C)CN3CCC(OCCOCCOc4ccc5c(c4)C(=O)N(C4CCC(=O)NC4=O)C5=O)CC3)nc3c(F)c(-c4cc(O)cc5ccccc45)c(Cl)cc23)CC1 (stereo partly drawn) [compound 427, 5-(2-(2-((1-((2R)-2-((4-(4-acryloylpiperazin-1-yl)-6-chloro-8-fluoro-7-(3-hydroxynaphthalen-1-yl)quinazolin-2-yl)oxy)propyl)piperidin-4-yl)oxy)ethoxy)ethoxy)-2-(2,6-dioxopiperidin-3-yl)isoindoline-1,3-dione]
C (Percent Degradation: C ≤ 35): 0.1 μM | 0.3 μM | 1 μM
